One series deals with SD rats. In words: Autonomous activity of rats. Type of series: in vivo. The procedure: The animals were placed in the test box immediately after administration, and the activity distance of the animals within 60 minutes was recorded and analyzed using Top Scan Version 3.0. […] The experimental data were expressed by mean ± standard deviation (Mean ± SD), and SPSS 21.0 statistical software was used for one-way analysis of variance. The Dunnett's test was used for pairwise comparison, and p<0.05 was represented as *.

Another series concerns the target T1, OX2 receptor (Homo sapiens, UniProt O43614).
T1 construct: host or cells: CHO-K1
T1 sequence (O43614 1-444): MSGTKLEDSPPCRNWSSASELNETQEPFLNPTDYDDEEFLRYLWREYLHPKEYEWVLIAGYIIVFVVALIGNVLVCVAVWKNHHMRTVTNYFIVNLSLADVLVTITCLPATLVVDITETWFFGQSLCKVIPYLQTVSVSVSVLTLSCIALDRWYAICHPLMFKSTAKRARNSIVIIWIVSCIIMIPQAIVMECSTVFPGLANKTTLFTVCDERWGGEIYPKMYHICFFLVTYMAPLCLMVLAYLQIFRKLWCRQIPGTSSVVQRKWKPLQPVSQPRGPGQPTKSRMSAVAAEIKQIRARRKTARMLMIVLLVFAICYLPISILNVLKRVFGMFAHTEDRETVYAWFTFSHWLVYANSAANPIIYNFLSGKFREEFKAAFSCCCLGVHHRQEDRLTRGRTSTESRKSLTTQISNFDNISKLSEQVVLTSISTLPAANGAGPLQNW
In words: Orexin target function test (Cisbio HTRF IP-one), CHO-K1-OX2 cells, antagonism of EC80 Orexin 2 receptor agonist. Type of series: cell-based. The protocol: (§1) Using Cisbio HTRF IP-one kit to detect the changes in IP-one concentration of orexin receptor (OX1/OX2) signaling pathway by microplate reader, and calculating the IC50 value of the compound to evaluate the antagonistic effect of the compound on OX1 and OX2 receptors.
(§2) The cells were centrifuged at 1000 rpm for 5 minutes and the supernatant was discarded. 3 mL of PBS was added, and gently blown with a pipette to mix. After centrifugation at 1000 rpm for 5 minutes again, the supernatant was discarded. […] Based on the antagonistic effect values of the compound samples at different concentrations, the GraphPad Prism software was used to fit the orexin receptor antagonism curve of the compound samples and calculate the IC50.

The next series concerns the target T2, OX1 receptor (Homo sapiens, UniProt O43613).
T2 construct: host or cells: CHO-K1
T2 sequence (O43613 1-425): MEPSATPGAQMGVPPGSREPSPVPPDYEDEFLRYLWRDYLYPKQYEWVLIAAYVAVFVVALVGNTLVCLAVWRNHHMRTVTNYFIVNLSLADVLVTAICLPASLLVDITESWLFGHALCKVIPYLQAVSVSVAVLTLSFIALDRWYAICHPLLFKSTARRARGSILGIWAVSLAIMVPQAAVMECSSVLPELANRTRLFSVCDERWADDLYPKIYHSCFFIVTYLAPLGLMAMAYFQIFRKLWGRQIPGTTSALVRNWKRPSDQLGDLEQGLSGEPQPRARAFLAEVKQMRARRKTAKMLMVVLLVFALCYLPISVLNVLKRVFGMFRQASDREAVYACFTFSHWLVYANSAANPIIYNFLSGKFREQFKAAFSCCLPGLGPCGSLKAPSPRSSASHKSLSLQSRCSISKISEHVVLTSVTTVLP
The series is described as follows: Orexin target function test (Cisbio HTRF IP-one), CHO-K1-OX1 cells, antagonism of EC80 Orexin A. Type of series: cell-based. The procedure:
as §1, §2

The nature of another series: in vivo. As to conditions: male, SD, rat, plasma.
The mark [1] stands for this setting: male SD rats, dose 10 mg/kg, versus blank vehicle group.
[2] abbreviates: male SD rats, dose 10 mg/kg, within 60 minutes, Mean ± SD.
The mark [3] stands for this setting: male SD rats, dose 30 mg/kg, versus blank vehicle group.
The mark [4] stands for this setting: male SD rats, dose 30 mg/kg, within 60 minutes, Mean ± SD.
[5] abbreviates: male SD rats, dose 50 mg/kg, versus blank vehicle group.
[6] abbreviates: male SD rats, dose 50 mg/kg, within 60 minutes, Mean ± SD.
Where [7] appears, read: CHO-K1-OX2 cells, IP-one, read-out: hOX2R IC50.
The mark [8] stands for this setting: CHO-K1-OX1 cells, IP-one, read-out: hOXIR IC50.
Setting [9] is: ratio of OX1R IC50 to OX2R IC50.

pIC50: −log10 of the molar value. Like-named read-outs stand apart in the source and are kept apart here. Marks after values point to notes of the source that are not given here.

For the molecule `Cc1nc(C2=CC3CN(C(=O)c4c(F)cccc4-n4nccn4)CC3C2)nc(C)c1F` (stereo not shown) [Compound 1, (5-(5-fluoro-4,6-dimethylpyrimidin-2-yl)-3,3a,4,6a-tetrahydrocyclopenta[c]pyrrol-2(1H)-yl)(2-fluoro-6-(2H-1,2,3-triazol-2-yl)phenyl)methanone], the entries for the “Inhibition rate(%)” value in the series on SD rats (setting [1]), with SD rats (setting [3]) and in the series on SD rats (setting [5]) were 16.33%, 23.37* % and 59.81* %, respectively. The “Activity distance (mm)” value in the series with SD rats (setting [2]) worked out at 59434.65±1478.32 mm; in the series on SD rats (setting [4]), 54433.35±3341.26 mm; in the series on SD rats (setting [6]), 28548.56±1238.05 mm. On OX2 receptor, this molecule gave a Selectivity of 80. Moreover, the pIC50 at OX2 receptor (setting [7]) is 7.85; at OX1 receptor (setting [8]), 5.95.

As to `Cc1nc(C2=CC3CN(C(=O)c4ccc(F)cc4-n4nccn4)CC3C2)nc(C)c1F` (stereo not shown) [Compound 2, (4-fluoro-2-(2H-1,2,3-triazol-2-yl)phenyl)(5-(5-fluoro-4,6-dimethylpyrimidin-2-yl)-3,3a,4,6a-tetrahydrocyclopenta[c]pyrrol-2(1H)-yl)methanone], in the series with SD rats (rat, in vivo, 10 mg/kg), the “Activity distance (mm)” value turned out to be 52097.9±18671.68 mm and the “Inhibition rate(%)” value is 26.66* %. Moreover, in the series with SD rats (rat, in vivo, 30 mg/kg), the “Activity distance (mm)” value came out at 46276.83±15906.44 mm and the “Inhibition rate(%)” value is given as 34.85 * %. Moreover, in the series on SD rats (rat, in vivo, 50 mg/kg), the “Activity distance (mm)” value is 37866.51±7149.48 mm and the “Inhibition rate(%)” value is 46.69* %. At OX2 receptor, this molecule gave a pIC50 of 7.74 and a Selectivity of 128. This molecule showed a pIC50 against OX1 receptor of 5.64. Further, in the series “in vivo” (iv, 1 mg/kg), the area under the curve AUC(0-t) stood at 869 ng·h/mL and the Cmax turned out to be 1880 ng/mL. In the series “in vivo” (po, 30 mg/kg), this molecule gave an AUC(0-t) of 15000 ng·h/mL, a Cmax of 7480 ng/mL and a bioavailability of 57.6%.

With `COc1nc(C2=CC3CN(C(=O)c4c(F)cccc4-n4nccn4)CC3C2)nc(C)c1F` (stereo not shown) [Compound 8, (5-(5-fluoro-4-methoxy-6-methylpyrimidin-2-yl)-3,3a,4,6a-tetrahydrocyclopenta[c]pyrrol-2(1H)-yl)(2-fluoro-6-(2H-1,2,3-triazol-2-yl)phenyl)methanone], on OX2 receptor (setting [7]), the pIC50 is 7.92. In addition, the Selectivity at OX2 receptor (setting [9]) is recorded as 100. Also, at OX1 receptor (setting [8]), the pIC50 is 5.91. In “in vivo” (iv, 1 mg/kg), this molecule had an AUC(0-t) of 808 ng·h/mL and a Cmax of 3220 ng/mL. In addition, in the series “in vivo” (po, 30 mg/kg), the AUC(0-t) was 16900 ng·h/mL, the Cmax is 13800 ng/mL and the bioavailability was found to be 69.8%.

For the molecule `Cc1nc(C2=CC3CN(C(=O)c4c(F)cccc4-n4nccn4)CC3C2)nc2c1COC2` (stereo not shown) [Compound 20, (2-fluoro-6-(2H-1,2,3-triazol-2-yl)phenyl)(5-(4-methyl-5,7-dihydrofuro[3,4-d]pyrimidin-2-yl)-3,3a,4,6a-tetrahydrocyclopenta[c]pyrrol-2(1H)-yl)methanone], the “Inhibition rate(%)” value is reported as 14.67% with SD rats (setting [1]), 24.24* % in the series with SD rats (setting [3]) and 31.17* % with SD rats (setting [5]). For the same molecule, the results for the “Activity distance (mm)” value in the series with SD rats (setting [2]), in the series on SD rats (setting [4]) and in the series with SD rats (setting [6]) were 60610.23±1657.26 mm, 53815.36±1401.21 mm and 48892.70±2164.16 mm, respectively. In addition, the pIC50 was 7.61 on OX2 receptor (setting [7]) and 5.50 at OX1 receptor (setting [8]). Also, on OX2 receptor (setting [9]), the Selectivity worked out at 129.

Take `CCOc1ccc(C(=O)N2CC3C=C(c4nc(C)cnc4OC)CC3C2)c(-n2nccn2)c1` (stereo not shown) [Compound 45, [4-ethoxy-2-(2H-1,2,3-triazol-2-yl)phenyl][5-(3-methoxy-6-methylpyrazin-2-yl)-3,3a,4,6a-tetrahydrocyclopenta[c]pyrrol-2(1H)-yl]methanone]: at OX2 receptor (setting [7]), the negative logarithm of the IC50 (pIC50) is 7.60. The Selectivity at OX2 receptor (setting [9]) turned out to be 125. In addition, the pIC50 at OX1 receptor (setting [8]) is 5.52. In “in vivo” (iv, 1 mg/kg), this molecule registered an AUC(0-t) of 1560 ng·h/mL and a Cmax of 2520 ng/mL. Moreover, in the series “in vivo” (po, 30 mg/kg), the exposure AUC(0-t) is 36000 ng·h/mL, the peak concentration (Cmax) was 19600 ng/mL and the bioavailability is 77.1%.

`COc1ccc(C(=O)N2CC3C=C(c4nc(C)cnc4OC)CC3C2)c(-c2ncccn2)c1` (stereo not shown) [Compound 48, [4-methoxy-2-(pyrimidin-2-yl)phenyl][5-(3-methoxy-6-methylpyrazin-2-yl)-3,3a,4,6a-tetrahydrocyclopenta[c]pyrrol-2(1H)-yl]methanone]: at OX2 receptor (setting [7]), the negative-log IC50 (pIC50) was 7.68. Moreover, at OX2 receptor (setting [9]), the Selectivity is recorded as 154. Besides, the pIC50 at OX1 receptor (setting [8]) was 5.49. In “in vivo” (iv, 1 mg/kg), the AUC(0-t) was 886 ng·h/mL and the peak level (Cmax) was 3310 ng/mL. In “in vivo” (po, 30 mg/kg), the AUC(0-t) is 10100 ng·h/mL, the Cmax is 9410 ng/mL and the bioavailability stood at 37.8%.

In the case of `[2H]C([2H])([2H])c1cnc(OC)c(C2=CC3CN(C(=O)c4ccc(OC)cc4-n4nccn4)CC3C2)n1` (stereo not shown) [Compound 56, [4-methoxy-2-(2H-1,2,3-triazol-2-yl)phenyl][5-[3-methoxy-6-(methyl-d3)pyrazin-2-yl]-3,3a,4,6a-tetrahydrocyclopentyl[c]pyrrol-2(1H)-yl]methanone], the pIC50 was 7.80 on OX2 receptor (setting [7]) and 5.64 at OX1 receptor (setting [8]). The Selectivity on OX2 receptor (setting [9]) was found to be 144.

As for `[2H]C([2H])([2H])Oc1ccc(C(=O)N2CC3C=C(c4nc(C)cnc4OC)CC3C2)c(-n2nccn2)c1` (stereo not shown) [Compound 57, [5-(3-methoxy-6-methylpyrazin-2-yl)-3,3a,4,6a-tetrahydrocyclopenta[c]pyrrol-2(1H)-yl][4-(methoxy-d3)-2-(2H-1,2,3-triazol-2-yl)phenyl]methanone], the pIC50 on OX2 receptor (setting [7]) is 7.74; at OX1 receptor (setting [8]), 5.50. Moreover, the Selectivity on OX2 receptor (setting [9]) is 176.

Take `[2H]C([2H])([2H])Oc1ncc(C)nc1C1=CC2CN(C(=O)c3ccc(OC)cc3-n3nccn3)CC2C1` (stereo not shown) [Compound 58, [4-methoxy-2-(2H-1,2,3-triazol-2-yl)phenyl][5-[3-(methoxy-d3)-6-methylpyrazin-2-yl]-3,3a,4,6a-tetrahydrocyclopentyl[c]pyrrol-2(1H)-yl]methanone]: the pIC50 at OX2 receptor (setting [7]) is 7.62; at OX1 receptor (setting [8]) it was 5.70. Moreover, the Selectivity on OX2 receptor (setting [9]) is 83.

As to `COc1ccc(C(=O)N2CC3C=C(c4nc(CF)cnc4OC)CC3C2)c(-n2nccn2)c1` (stereo not shown) [Compound 59, [5-[6-(fluoromethyl)-3-methoxypyrazin-2-yl]-3,3a,4,6a-tetrahydrocyclopentyl[c]pyrrol-2(1H)-yl][4-methoxy-2-(2H-1,2,3-triazol-2-yl)phenyl]methanone], the pIC50 was 7.77 at OX2 receptor (setting [7]) and 5.74 on OX1 receptor (setting [8]). In addition, on OX2 receptor (setting [9]), the Selectivity turned out to be 106.

The molecule `COc1ncc(C)nc1C1=CC2CN(C(=O)c3ccc(F)cc3-n3cccn3)CC2C1` (stereo not shown) [Compound 61, [4-fluoro-2-(1H-pyrazol-1-yl)phenyl][5-(3-methoxy-6-methylpyrazin-2-yl)-3,3a,4,6a-tetrahydrocyclopenta[c]pyrrol-2(1H)-yl]methanone] displayed a Selectivity at OX2 receptor of 150. Besides, at OX2 receptor (setting [7]), the pIC50 is 7.85. The pIC50 on OX1 receptor (setting [8]) was 5.68. In “in vivo” (iv, 1 mg/kg), this molecule yielded an AUC(0-t) of 737 ng·h/mL and a Cmax of 1920 ng/mL. In “in vivo” (po, 30 mg/kg), this molecule registered an AUC(0-t) of 5400 ng·h/mL, a Cmax of 5690 ng/mL and a bioavailability of 24.4%.

Turning to `Cc1cnc(C#N)c(C2=CC3CN(C(=O)c4ccc(F)cc4-n4nccn4)CC3C2)n1` (stereo not shown) [Compound 62, 3-[2-[4-fluoro-2-(2H-1,2,3-triazol-2-yl)benzoyl]-1,2,3,3a,4,6a-hexahydrocyclopenta[c]pyrrol-5-yl]-5-methylpyrazine-2-carbonitrile], the pIC50 is 7.74 at OX2 receptor (setting [7]) and 5.78 at OX1 receptor (setting [8]). Further, the Selectivity on OX2 receptor (setting [9]) was determined as 92.

These data come from patent EP4635949A1 (Jiangsu NHWA Pharmaceutical Co., Ltd, priority 2022, dated 2024).
